Values after ≈ are worked out from the molar mass of the structure shown. Active and inactive are the calls of the source. The rule behind the calls is not given here.

Data on 1 molecule can be found in ChEMBL document CHEMBL5113460, “Discovery of dual inhibitors of topoisomerase I and Cyclooxygenase-2 for colon cancer therapy” (Eur J Med Chem, 2022).

Series [1] concerns HT-29. In words: Antitumor activity against human HT-29 cells xenografted in BALB/c mouse assessed as inhibition of tumor growth at 15 mg/kg, ip bid and measured after 14 days by vernier caliper method. It counts as functional. To be noted: HT-29, 336 h, time 14 day, read-out: TGI.
The test system of series [2] is RKO. In words: Antiproliferative activity against human RKO cells assessed as inhibition of cell proliferation incubated for 24 to 72 hrs by MTT assay. The conditions noted are these: time 24-72 hrs, DDE = dose-dependent effect. The format is functional, cell-based.
Series [3] concerns RKO. In words: Induction of apoptosis in human RKO cells assessed as viable cells at 6 uM incubated for 24 hr by Annexin-V-FITC/PI staining based flow cytometry (Rvb= 87.9%). The format is functional. To be noted: read-out: Activity.
The subject of series [4] is RKO. In words: Induction of apoptosis in human RKO cells assessed as necrotic cells at 3 uM incubated for 24 hr by Annexin-V-FITC/PI staining based flow cytometry (Rvb= 0.30%). It counts as functional.
The test system of series [5] is RKO. In words: Induction of apoptosis in human RKO cells assessed as necrotic cells at 9 uM incubated for 24 hr by Annexin-V-FITC/PI staining based flow cytometry (Rvb= 0.30%). The format is functional.
For series [6], the system named is RKO. In words: Induction of apoptosis in human RKO cells assessed as increase in cytochrome c protein level at 3 to 9 uM incubated for 24 hrs by western blot analysis. To be noted: dose 3-9 µM. It counts as functional, cell-based.
The nature of series [7]: Half life in Sprague-Dawley rat at 100 mg/kg, po and measured upto 24 hrs by LC-MS analysis. The format is ADME, organism-based. The conditions noted are these: in vivo.
The subject of series [8] is RKO. In words: Induction of apoptosis in human RKO cells assessed as increase in cleaved caspase-9 protein level at 3 to 9 uM incubated for 24 hrs by western blot analysis. It counts as functional, cell-based. To be noted: dose 3-9 µM.
Series [9] concerns HT-29. In words: Antitumor activity against human HT-29 cells xenografted in BALB/c mouse assessed as inhibition of tumor microvessel density by measuring CD31-index at 30 mg/kg, ip bid for 14 days by immunohistochemical analysis. The conditions noted are these: time 14 day. It counts as functional.
The subject of series [10] is HT-29. In words: Antitumor activity against human HT-29 cells xenografted in BALB/c mouse assessed as inhibition of tumor microvessel density by measuring CD31-index at 15 mg/kg, ip bid for 14 days by immunohistochemical analysis. It counts as functional. The conditions noted are these: time 14 day.
Series [11] has as its system RKO. In words: Induction of apoptosis in human RKO cells assessed as early apoptotic cells at 6 uM incubated for 24 hr by Annexin-V-FITC/PI staining based flow cytometry (Rvb= 7.27%). The format is functional.
Series [12] is described as follows: Water solubility of compound by HPLC analysis. The format is physicochemical.
Series [13] deals with HT-29. In words: Inhibition of NF-kappaB signalling pathway in human HT-29 cells assessed as decrease in phosphorylated NF-kappaB p65 level at 2 to 8 uM incubated for 24 hrs by Western blot analysis. It counts as cell-based. The conditions noted are these: dose 2-8 µM.
Series [14] deals with RKO. In words: Induction of apoptosis in human RKO cells assessed as early apoptotic cells at 3 uM incubated for 24 hr by Annexin-V-FITC/PI staining based flow cytometry (Rvb= 7.27%). The format is functional.
Series [15] concerns HT-29. In words: Antitumor activity against human HT-29 cells xenografted in BALB/c mouse assessed as inhibition of tumor cell proliferation at 15 mg/kg, ip bid for 14 days by Ki67 staining based immunohistochemical analysis (Rvb= 16.61+/-1.05%). It counts as functional. Also on record: scale not given: the % may be the effect or the level left. The conditions noted are these: time 14 day.

The subject of series [16] is HT-29. In words: Induction of apoptosis in human HT-29 cells assessed as early apoptotic cells at 8 uM incubated for 24 hr by Annexin-V-FITC/PI staining based flow cytometry (Rvb=6.25%). The format is functional.
Series [17] concerns HT-29. In words: Induction of apoptosis in human HT-29 cells assessed as early apoptotic cells at 2 uM incubated for 24 hr by Annexin-V-FITC/PI staining based flow cytometry (Rvb=6.25%). It counts as functional.
Series [18] has as its system RKO. In words: Induction of apoptosis in human RKO cells assessed as viable cells at 9 uM incubated for 24 hr by Annexin-V-FITC/PI staining based flow cytometry (Rvb= 87.9%). It counts as functional. To be noted: read-out: Activity.
Series [19] has as its system HT-29. In words: Induction of cell cycle arrest in human HT-29 cells assessed as ratio of G1/G0 phase at 2 to 8 uM incubated for 24 hrs by flow cytometry (Rvb= 55.20%). The format is functional. The conditions noted are these: dose 2-8 µM.
The test system of series [20] is HT-29. In words: Induction of apoptosis in human HT-29 cells assessed as reduction in mitochondrial membrane potential at 2 to 8 uM by TMRE staining based flow cytometry. The format is functional, cell-based. The conditions noted are these: dose 2-8 µM.

In the case of `Cc1c(Cl)cccc1Nc1ccccc1C(=O)Nc1ccc(N2CCNCC2)cc1`, the inhibition in vivo at 15 mg/kg in [1] was 40.7%. Besides, the Activity entry was “Dde” in series [2]; 0.46% in series [4]; 0.59% in [5]; 10.5% in series [11]; 6.88% in series [14]; 3.74% in [15]. Also, the Activity in [16] was 3.96%; in series [17] it was 4.85%; in series [19] it was 65.17%. In series [3], the viability at 6 µM was determined as 81.9%. For the same molecule, the result in series [6], in [8] and in series [20] was Active. In series [7], this molecule showed a half-life of 532 min. Further, the Inhibition_index in series [9] amounted to 6; in series [10], 10.67. In series [12], this molecule had a solubility of 32.3 µg/mL (≈ 76.8 µM). In [13], the inhibition entry is “Active”. The viability at 9 µM in series [18] amounted to 65.6%.
